Test [1] deals with Ras-related protein Rab-6A (Homo sapiens, UniProt P20340).
Test [2] deals with Serine/threonine-protein kinase PAK 4 (Homo sapiens, UniProt O96013).
Test [3] has as its target Calcium/calmodulin-dependent protein kinase type II subunit delta (Homo sapiens, UniProt Q13557).
The target in test [4] is T1, Serine/threonine-protein kinase Nek9 (Homo sapiens, UniProt Q8TD19).
T1 sequence (Q8TD19 whole entry): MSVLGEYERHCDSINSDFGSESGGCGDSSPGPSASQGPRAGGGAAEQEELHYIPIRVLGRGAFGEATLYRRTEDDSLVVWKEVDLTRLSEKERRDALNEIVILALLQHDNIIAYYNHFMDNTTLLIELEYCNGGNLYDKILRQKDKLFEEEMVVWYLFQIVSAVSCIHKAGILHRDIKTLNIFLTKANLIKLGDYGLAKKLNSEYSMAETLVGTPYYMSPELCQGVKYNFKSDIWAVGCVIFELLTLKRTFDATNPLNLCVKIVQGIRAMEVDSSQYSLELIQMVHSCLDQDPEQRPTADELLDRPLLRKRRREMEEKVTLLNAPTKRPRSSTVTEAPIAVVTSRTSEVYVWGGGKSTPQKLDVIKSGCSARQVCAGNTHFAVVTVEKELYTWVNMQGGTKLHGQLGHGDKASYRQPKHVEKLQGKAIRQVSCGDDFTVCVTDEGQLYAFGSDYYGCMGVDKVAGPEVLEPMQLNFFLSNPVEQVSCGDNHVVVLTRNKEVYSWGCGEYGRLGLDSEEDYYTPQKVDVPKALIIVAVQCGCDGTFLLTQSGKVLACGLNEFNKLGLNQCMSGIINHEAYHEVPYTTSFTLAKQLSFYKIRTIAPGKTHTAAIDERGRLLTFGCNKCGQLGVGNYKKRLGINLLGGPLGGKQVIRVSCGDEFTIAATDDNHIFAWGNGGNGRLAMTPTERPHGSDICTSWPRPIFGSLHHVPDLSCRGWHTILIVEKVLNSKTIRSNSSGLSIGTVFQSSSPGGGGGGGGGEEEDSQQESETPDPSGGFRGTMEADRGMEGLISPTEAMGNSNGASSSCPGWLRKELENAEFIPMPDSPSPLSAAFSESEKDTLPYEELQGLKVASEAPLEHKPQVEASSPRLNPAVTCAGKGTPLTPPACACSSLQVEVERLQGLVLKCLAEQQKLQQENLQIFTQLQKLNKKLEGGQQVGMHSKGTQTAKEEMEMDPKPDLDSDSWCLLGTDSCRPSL

Test [5] deals with Rho-associated protein kinase 1 (Homo sapiens, UniProt Q13464).
For test [6], the target named is T2, DNA replication licensing factor MCM4 (Homo sapiens, UniProt P33991).
T2 sequence (P33991 whole entry): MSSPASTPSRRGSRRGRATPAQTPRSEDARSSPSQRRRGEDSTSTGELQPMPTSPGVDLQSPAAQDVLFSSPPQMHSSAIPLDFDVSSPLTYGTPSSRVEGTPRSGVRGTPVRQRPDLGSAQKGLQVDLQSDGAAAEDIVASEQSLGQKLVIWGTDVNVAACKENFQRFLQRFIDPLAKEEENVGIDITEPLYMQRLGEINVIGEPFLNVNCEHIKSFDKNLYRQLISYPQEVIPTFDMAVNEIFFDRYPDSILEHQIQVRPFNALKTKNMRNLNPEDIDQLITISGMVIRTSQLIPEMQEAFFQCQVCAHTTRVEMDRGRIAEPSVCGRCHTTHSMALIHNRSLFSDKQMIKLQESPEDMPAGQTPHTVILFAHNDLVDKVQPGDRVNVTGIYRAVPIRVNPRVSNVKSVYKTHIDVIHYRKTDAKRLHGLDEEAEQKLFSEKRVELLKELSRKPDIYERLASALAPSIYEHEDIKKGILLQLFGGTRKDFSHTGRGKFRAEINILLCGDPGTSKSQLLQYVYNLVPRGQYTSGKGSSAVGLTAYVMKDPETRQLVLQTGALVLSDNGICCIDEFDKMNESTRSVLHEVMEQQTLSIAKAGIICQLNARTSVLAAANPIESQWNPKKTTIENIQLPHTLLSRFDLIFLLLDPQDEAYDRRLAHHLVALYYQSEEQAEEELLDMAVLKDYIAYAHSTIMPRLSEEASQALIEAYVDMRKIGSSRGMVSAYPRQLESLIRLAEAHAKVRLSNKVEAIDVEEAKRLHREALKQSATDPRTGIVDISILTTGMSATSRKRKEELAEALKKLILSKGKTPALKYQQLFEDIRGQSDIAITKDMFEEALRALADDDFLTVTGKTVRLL

Test [7] concerns the target Receptor-interacting serine/threonine-protein kinase 2 (Homo sapiens, UniProt O43353).
In test [8] the target is Insulin-like growth factor 1 receptor (Homo sapiens, UniProt P08069).
Test [9] concerns the target Cyclin-dependent kinase 6 (Homo sapiens, UniProt Q00534).
In test [10] the target is Mitogen-activated protein kinase 11 (Homo sapiens, UniProt Q15759).
Test [11] has as its target T3, Beta-adrenergic receptor kinase 1 (Homo sapiens, UniProt P25098).
T3 sequence (P25098 whole entry): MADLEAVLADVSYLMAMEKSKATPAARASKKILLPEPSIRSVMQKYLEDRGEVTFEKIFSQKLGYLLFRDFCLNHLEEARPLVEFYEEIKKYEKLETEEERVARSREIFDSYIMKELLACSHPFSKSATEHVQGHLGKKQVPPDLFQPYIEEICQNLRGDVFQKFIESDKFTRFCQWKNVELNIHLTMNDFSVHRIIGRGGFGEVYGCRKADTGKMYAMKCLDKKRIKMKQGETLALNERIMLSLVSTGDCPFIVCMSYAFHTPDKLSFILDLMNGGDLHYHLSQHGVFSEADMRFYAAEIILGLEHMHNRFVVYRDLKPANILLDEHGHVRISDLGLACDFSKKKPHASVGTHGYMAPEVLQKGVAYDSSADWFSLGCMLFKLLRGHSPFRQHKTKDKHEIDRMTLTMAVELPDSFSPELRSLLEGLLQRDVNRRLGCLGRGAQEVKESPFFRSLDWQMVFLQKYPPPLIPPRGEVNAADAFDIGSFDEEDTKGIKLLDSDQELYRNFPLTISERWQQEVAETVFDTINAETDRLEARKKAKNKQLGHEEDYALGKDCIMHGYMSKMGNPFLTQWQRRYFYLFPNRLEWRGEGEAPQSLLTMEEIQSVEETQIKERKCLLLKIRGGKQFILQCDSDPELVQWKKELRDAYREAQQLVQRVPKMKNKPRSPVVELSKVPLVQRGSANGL

Activity calls are given as the source filed them. Rule as the data show it, for most assays here: actives have a measured Kd and inactives only a lower limit. Some results are limits rather than exact numbers.
Also: in the data inactive means no Kd found up to 30 µM.

Mitogen-activated protein kinase 11, sequence (Q15759 whole entry): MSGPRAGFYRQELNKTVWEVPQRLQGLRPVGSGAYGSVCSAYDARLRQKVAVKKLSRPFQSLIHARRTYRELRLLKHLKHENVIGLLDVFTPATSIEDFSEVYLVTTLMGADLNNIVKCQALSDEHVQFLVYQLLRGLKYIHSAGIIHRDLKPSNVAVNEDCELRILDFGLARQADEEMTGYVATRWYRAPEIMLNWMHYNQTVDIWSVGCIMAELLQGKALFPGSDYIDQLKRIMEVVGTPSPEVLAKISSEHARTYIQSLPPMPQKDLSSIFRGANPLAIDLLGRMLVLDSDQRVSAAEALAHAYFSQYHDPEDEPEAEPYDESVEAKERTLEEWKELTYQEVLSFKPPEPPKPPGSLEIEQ
Rho-associated protein kinase 1, sequence (Q13464 whole entry): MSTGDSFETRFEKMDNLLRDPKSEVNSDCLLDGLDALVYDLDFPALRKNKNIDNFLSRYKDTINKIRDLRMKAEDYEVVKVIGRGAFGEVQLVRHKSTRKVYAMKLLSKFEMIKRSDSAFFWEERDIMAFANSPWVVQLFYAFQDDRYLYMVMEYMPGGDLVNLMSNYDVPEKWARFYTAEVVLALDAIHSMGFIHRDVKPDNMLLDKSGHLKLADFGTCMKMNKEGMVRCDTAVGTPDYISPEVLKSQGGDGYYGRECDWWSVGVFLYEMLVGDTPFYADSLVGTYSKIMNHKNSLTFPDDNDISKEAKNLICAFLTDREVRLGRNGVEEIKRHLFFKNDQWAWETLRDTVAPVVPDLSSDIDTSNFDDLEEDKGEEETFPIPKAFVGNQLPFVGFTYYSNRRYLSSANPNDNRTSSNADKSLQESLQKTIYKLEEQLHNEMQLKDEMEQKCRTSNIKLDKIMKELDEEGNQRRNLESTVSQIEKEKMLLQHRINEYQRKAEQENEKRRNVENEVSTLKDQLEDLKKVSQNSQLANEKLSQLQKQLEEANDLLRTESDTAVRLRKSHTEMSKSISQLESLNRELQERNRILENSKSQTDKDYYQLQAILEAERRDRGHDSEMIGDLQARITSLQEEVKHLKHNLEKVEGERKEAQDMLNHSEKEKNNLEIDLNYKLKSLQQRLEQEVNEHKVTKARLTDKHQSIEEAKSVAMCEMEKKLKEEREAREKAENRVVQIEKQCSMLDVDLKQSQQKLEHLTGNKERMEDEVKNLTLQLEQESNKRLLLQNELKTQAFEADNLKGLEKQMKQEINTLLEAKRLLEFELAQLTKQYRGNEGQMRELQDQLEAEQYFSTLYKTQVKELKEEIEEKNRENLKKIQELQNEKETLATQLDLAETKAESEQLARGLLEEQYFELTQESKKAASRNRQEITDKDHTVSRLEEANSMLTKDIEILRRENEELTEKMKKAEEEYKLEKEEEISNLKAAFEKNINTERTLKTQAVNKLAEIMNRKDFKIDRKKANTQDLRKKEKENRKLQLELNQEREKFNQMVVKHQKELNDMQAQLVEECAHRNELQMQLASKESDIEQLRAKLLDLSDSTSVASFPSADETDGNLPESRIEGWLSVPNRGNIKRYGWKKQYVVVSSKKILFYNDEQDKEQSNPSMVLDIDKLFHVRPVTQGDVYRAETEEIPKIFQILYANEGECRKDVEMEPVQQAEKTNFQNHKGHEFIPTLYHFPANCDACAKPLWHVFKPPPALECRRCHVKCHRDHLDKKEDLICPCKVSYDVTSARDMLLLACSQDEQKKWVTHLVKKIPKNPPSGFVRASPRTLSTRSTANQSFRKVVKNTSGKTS
Cyclin-dependent kinase 6, sequence (Q00534 whole entry): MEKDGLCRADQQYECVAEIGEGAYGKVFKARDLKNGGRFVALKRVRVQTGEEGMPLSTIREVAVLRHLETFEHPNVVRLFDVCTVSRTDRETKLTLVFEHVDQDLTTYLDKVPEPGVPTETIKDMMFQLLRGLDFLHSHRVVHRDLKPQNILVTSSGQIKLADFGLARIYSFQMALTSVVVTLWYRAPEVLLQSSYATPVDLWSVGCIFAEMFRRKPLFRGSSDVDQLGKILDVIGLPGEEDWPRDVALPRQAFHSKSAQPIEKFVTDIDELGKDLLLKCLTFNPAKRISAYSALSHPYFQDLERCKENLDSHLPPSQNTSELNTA
Ras-related protein Rab-6A, sequence (P20340 whole entry): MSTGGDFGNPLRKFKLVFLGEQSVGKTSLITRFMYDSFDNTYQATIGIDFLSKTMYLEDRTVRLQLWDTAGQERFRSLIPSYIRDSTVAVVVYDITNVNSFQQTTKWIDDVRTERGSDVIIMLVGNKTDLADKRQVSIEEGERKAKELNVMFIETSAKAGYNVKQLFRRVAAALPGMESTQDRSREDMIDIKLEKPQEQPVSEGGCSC
Insulin-like growth factor 1 receptor, sequence (P08069 31-736 limits assumed): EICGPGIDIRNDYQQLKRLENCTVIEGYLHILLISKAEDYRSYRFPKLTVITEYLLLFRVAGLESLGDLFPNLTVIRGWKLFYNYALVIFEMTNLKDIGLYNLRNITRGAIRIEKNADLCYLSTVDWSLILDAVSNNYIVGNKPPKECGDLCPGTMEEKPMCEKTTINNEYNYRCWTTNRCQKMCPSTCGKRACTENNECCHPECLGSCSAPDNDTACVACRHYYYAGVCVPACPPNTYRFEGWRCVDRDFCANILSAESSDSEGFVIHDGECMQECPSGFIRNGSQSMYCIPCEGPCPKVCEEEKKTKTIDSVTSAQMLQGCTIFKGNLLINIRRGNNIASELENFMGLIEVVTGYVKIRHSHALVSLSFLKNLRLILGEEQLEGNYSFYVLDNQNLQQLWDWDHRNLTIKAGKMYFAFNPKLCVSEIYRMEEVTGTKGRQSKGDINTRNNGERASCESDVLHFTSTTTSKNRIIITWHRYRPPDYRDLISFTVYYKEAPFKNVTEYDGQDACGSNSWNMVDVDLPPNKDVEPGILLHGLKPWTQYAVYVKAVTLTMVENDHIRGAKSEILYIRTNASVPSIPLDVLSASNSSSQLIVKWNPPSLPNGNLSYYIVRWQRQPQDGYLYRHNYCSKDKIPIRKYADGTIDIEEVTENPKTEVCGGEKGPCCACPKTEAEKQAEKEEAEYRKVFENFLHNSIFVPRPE
Insulin-like growth factor 1 receptor, sequence (P08069 741-1367 limits assumed): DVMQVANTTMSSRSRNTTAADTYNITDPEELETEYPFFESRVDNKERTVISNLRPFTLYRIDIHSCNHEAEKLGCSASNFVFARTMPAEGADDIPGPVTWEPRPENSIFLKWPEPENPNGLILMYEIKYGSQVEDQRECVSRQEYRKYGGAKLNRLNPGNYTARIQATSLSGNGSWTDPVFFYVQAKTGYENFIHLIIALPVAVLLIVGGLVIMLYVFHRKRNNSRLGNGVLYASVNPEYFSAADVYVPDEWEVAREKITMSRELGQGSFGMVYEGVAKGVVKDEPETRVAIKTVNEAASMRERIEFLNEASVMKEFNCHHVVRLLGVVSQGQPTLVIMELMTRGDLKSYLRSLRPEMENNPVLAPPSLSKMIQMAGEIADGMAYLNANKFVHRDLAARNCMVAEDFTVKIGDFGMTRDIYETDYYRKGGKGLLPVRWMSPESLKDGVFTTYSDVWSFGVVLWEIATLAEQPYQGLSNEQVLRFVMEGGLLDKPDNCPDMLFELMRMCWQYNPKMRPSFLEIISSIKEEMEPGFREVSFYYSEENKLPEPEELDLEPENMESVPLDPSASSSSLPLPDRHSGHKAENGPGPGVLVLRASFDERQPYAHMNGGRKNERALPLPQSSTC
Serine/threonine-protein kinase PAK 4, sequence (O96013 whole entry): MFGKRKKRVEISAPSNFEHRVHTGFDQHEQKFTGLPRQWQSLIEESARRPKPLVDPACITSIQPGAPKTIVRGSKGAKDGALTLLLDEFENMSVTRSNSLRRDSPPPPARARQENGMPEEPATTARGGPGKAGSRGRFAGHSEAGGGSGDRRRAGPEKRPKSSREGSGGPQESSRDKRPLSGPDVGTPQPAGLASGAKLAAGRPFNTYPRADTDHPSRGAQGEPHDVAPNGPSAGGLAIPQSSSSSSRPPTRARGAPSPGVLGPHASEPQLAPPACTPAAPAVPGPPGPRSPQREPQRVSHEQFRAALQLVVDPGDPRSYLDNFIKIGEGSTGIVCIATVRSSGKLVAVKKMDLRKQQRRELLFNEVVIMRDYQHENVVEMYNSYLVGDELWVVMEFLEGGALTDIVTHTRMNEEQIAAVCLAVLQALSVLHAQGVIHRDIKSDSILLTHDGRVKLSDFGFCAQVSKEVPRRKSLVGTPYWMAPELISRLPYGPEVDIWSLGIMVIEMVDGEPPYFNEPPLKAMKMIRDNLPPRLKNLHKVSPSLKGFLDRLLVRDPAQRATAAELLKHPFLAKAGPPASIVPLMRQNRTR
Receptor-interacting serine/threonine-protein kinase 2, sequence (O43353 whole entry): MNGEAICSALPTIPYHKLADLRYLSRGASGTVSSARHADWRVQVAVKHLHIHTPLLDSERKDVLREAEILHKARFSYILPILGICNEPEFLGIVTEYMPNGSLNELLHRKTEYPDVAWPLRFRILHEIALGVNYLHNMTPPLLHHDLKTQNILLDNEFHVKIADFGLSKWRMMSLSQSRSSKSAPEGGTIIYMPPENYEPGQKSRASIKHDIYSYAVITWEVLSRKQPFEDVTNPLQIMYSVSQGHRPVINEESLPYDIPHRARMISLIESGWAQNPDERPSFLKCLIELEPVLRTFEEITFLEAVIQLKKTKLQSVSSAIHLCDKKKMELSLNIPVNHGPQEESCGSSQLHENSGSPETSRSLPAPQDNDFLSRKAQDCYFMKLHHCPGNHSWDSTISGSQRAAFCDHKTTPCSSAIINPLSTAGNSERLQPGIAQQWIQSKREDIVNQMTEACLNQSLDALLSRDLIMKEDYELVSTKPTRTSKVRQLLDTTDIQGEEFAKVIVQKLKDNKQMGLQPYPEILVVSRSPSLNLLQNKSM

What is called Kd is the equilibrium constant for the complex coming apart. On to `COc1cc2nccc(Oc3ccc(NC(=O)NC4CC4)c(Cl)c3)c2cc1C(N)=O` [LENVATINIB], for which the Kd in test [1], in test [2], in test [3], in test [4], in test [5] and in [6] was > 30 µM (inactive) each time. Besides, the Kd in test [7] was 0.011 µM (active); in test [8], > 30 µM (inactive); in [9], > 30 µM (inactive); in [10] it was > 30 µM (inactive); in test [11] it was > 30 µM (inactive).
Turning to `CO[C@H]1C[C@@H]2CC[C@@H](C)[C@@](O)(O2)C(=O)C(=O)N2CCCC[C@H]2C(=O)O[C@H]([C@H](C)C[C@@H]2CC[C@@H](OCCO)[C@H](OC)C2)CC(=O)[C@H](C)/C=C(\C)[C@@H](O)[C@@H](OC)C(=O)[C@H](C)C[C@H](C)/C=C/C=C/C=C/1C` [EVEROLIMUS], the Kd in test [1], in test [2], in test [3], in test [4], in test [5] and in [6] was > 30 µM (inactive) throughout. Further, the Kd in test [7], in test [8], in test [9], in test [10] and in [11] was > 30 µM (inactive) each time.
With `O=C1NC(=O)/C(=C/c2ccc3nccc(-c4ccncc4)c3c2)S1` [GSK-1059615], the Kd in test [1], in [2], in test [3], in test [4], in test [5] and in test [6] was > 30 µM (inactive) in each case. Besides, the Kd in test [7], in test [8], in test [9], in test [10] and in test [11] was > 30 µM (inactive) each time.
As to `CCS(=O)(=O)N1CC(CC#N)(n2cc(-c3ncnc4[nH]ccc34)cn2)C1` [BARICITINIB], the Kd in [1] is > 30 µM (inactive); in [2] it was > 30 µM (inactive); in [3], 0.312 µM (active); in [4], > 30 µM (inactive); in test [5] it was 0.482 µM (active); in test [6], > 30 µM (inactive). Moreover, the Kd in [7], in [8], in test [9], in test [10] and in test [11] was > 30 µM (inactive) each time.
As to `N[C@@H]1CCCN(c2c(/C=C3\SC(=O)NC3=O)cccc2-c2ccccc2)C1`, the Kd in test [1], in test [2], in test [3], in [4], in test [5] and in [6] was > 30 µM (inactive) each time. The Kd in [7], in [8], in test [10] and in test [11] was > 30 µM (inactive) each time.
Consider `CN(C)C(=O)c1cc2cnc(Nc3ccc(N4CCNCC4)cn3)nc2n1C1CCCC1` [RIBOCICLIB], for which the Kd in [1] is > 30 µM (inactive); in test [2], > 30 µM (inactive); in test [3] it was 0.293 µM (active); in [4] it was > 30 µM (inactive); in [5], > 30 µM (inactive); in test [6], > 30 µM (inactive). Also, the Kd in test [7], in [8], in [10] and in [11] was > 30 µM (inactive) throughout.
Turning to `CN1N=C(N)c2cn([C@@H]3O[C@H](COP(=O)(O)O)[C@@H](O)[C@H]3O)c3ncnc1c23` [TRICIRIBINE PHOSPHATE], the Kd in [2], in test [3], in test [4], in [5], in test [6] and in test [7] was > 30 µM (inactive) in each case. The Kd in test [8], in [9], in [10] and in [11] was > 30 µM (inactive) each time.
